Data: the NIST ThermoML archive (doi:10.1021/je800377b)
± gives the expanded uncertainty stated by the source.

Conditions: Liquid

| vapor or sublimation pressure (273.15 K) [kPa] | vapor or sublimation pressure (283.15 K) [kPa] | vapor or sublimation pressure (293.15 K) [kPa] | vapor or sublimation pressure (303.15 K) [kPa] | vapor or sublimation pressure (313.15 K) [kPa] | vapor or sublimation pressure (323.15 K) [kPa] | Compound |
| --- | --- | --- | --- | --- | --- | --- |
| 103 ± 2 | 149 ± 3 | 208 ± 3 | 284 ± 4 | 378 ± 5 | 493 ± 6 | CCCC [butane] |
| 476 ± 6 | 633 ± 8 | 833 ± 10 | 1079 ± 13 | 1366 ± 17 | 1709 ± 21 | CCC [propane] |
